# Results: patent US6670446B1, “N1 modified glycopeptides” (Eli Lilly and Company, priority 1998, dated 2003)
# Key:
# Type in all cases: cell-based
# [1] = test system: Enterococcus gallinarum 245; assay: MIC, standard broth micro-dilution assay, EG 245
# Experimental: (§1) The antibacterial efficacy of the present compounds is illustrated by Table III. The minimal inhibitory concentrations (MICs) were determined using a standard broth micro-dilution assay.
# [2] = test system: Staphylococcus epidermidis 270; assay: MIC, standard broth micro-dilution assay, SE 270
# Experimental: as §1
# [3] = test system: Staphylococcus aureus 446; assay: MIC, standard broth micro-dilution assay, SA 446
# Experimental: as §1
# [4] = test system: Resistant Enterococcus faecium and faecalis; assay: MIC, standard broth micro-dilution assay, Resistant; conditions: geometric mean of 4-6 isolates
# Experimental: as §1
# [5] = test system: Enterococcus faecalis 2041; assay: MIC, standard broth micro-dilution assay, EF 2041
# Experimental: as §1
# [6] = test system: Staphylococcus aureus SA1199A; assay: MIC, standard broth micro-dilution assay, SA 1199A
# Experimental: as §1
# [7] = test system: Enterococcus faecium 180; assay: MIC, standard broth micro-dilution assay, EF 180
# Experimental: as §1
# [8] = test system: Sensitive Enterococcus faecium and faecalis; assay: MIC, standard broth micro-dilution assay, Sensitive; conditions: geometric mean of 4-6 isolates
# Experimental: as §1
# [9] = test system: Staphylococcus haemolyticus 105; assay: MIC, standard broth micro-dilution assay, SH 105
# Experimental: as §1
# [10] = test system: Staphylococcus aureus X400; assay: MIC, standard broth micro-dilution assay, SA X400
# Experimental: as §1
# [11] = test system: Escherichia coli EC14; assay: MIC, standard broth micro-dilution assay, EC 14
# Experimental: as §1
# [12] = test system: Staphylococcus aureus S13E
# Experimental: as §1
# [13] = test system: Haemophilus influenzae RD; assay: MIC, standard broth micro-dilution assay, HFRD
# Experimental: as §1
# [14] = test system: Staphylococcus aureus SA1199; assay: MIC, standard broth micro-dilution assay, SA 1199
# Experimental: as §1
# [15] = test system: Enterococcus faecium 180-1; assay: MIC, standard broth micro-dilution assay, EF 180-1
# Experimental: as §1
# [16] = test system: Enterococcus faecalis 276; assay: MIC, standard broth micro-dilution assay, EF 276
# Experimental: as §1
# [17] = test system: Staphylococcus haemolyticus 415; assay: MIC, standard broth micro-dilution assay, SH 415
# Experimental: as §1
# [18] = test system: Staphylococcus aureus 491; assay: MIC, standard broth micro-dilution assay, SA 491
# Experimental: as §1
# [19] = test system: Staphylococcus aureus 489; assay: MIC, standard broth micro-dilution assay, SA 489
# Experimental: as §1
# [20] = test system: Staphylococcus aureus X778; assay: MIC, standard broth micro-dilution assay, SA X778
# Experimental: as §1
# [21] = test system: Staphylococcus aureus 447; assay: MIC, standard broth micro-dilution assay, SA 447
# Experimental: as §1
SMILES,"minimal inhibitory concentration (MIC), EG 245 [1]","minimal inhibitory concentration (MIC), SE 270 [2]","minimal inhibitory concentration (MIC), SA 446 [3]","minimal inhibitory concentration (MIC), Resistant [4]","minimal inhibitory concentration (MIC), EF 2041 [5]","minimal inhibitory concentration (MIC), SA 1199A [6]","minimal inhibitory concentration (MIC), EF 180 [7]","minimal inhibitory concentration (MIC), Sensitive [8]","minimal inhibitory concentration (MIC), SH 105 [9]","minimal inhibitory concentration (MIC), SA X400 [10]","minimal inhibitory concentration (MIC), EC 14 [11]","minimal inhibitory concentration (MIC), SA S13E [12]","minimal inhibitory concentration (MIC), HFRD [13]","minimal inhibitory concentration (MIC), SA 1199 [14]","minimal inhibitory concentration (MIC), EF 180-1 [15]","minimal inhibitory concentration (MIC), EF 276 [16]","minimal inhibitory concentration (MIC), SH 415 [17]","minimal inhibitory concentration (MIC), SA 491 [18]","minimal inhibitory concentration (MIC), SA 489 [19]","minimal inhibitory concentration (MIC), SA X778 [20]",other results
"CC1OC(OC2c3ccc(c(Cl)c3)Oc3cc4cc(c3OC3OC(CO)C(O)C(O)C3OC3CC(C)(NCc5ccc(-c6ccccc6)cc5)C(O)C(C)O3)Oc3ccc(cc3Cl)C(O)C(NC(=O)C(Cc3ccc(Cl)cc3)NC(=O)OC(C)(C)C)C(=O)NC(CC(N)=O)C(=O)NC4C(=O)NC3C(=O)NC2C(=O)NC(C(=O)O)c2cc(O)cc(O)c2-c2cc3ccc2O)CC(C)(N)C1O [Example 21, N^1-[N-BOC-D-3-(p-chlorophenyl)alanine] derivative of N^DISACC-(p-phenylbenzyl)desleucylA82846B]",1,0.5,0.5,11,0.5,no growth,1,1.5,2,0.5,>64,0.5,2,0.5,0.5,1,2,0.5,0.25,0.5,"minimal inhibitory concentration (MIC), SA 447 [21]: 0.5"
"CC1OC(OC2c3ccc(c(Cl)c3)Oc3cc4cc(c3OC3OC(CO)C(O)C(O)C3OC3CC(C)(NCc5ccc(-c6ccccc6)cc5)C(O)C(C)O3)Oc3ccc(cc3Cl)C(O)C(NC(=O)C(N)Cc3ccc(Cl)cc3)C(=O)NC(CC(N)=O)C(=O)NC4C(=O)NC3C(=O)NC2C(=O)NC(C(=O)O)c2cc(O)cc(O)c2-c2cc3ccc2O)CC(C)(N)C1O [Example 22, N^1-[D-3-(p-chlorophenyl)alanine] derivative of N^DISACC-(p-phenylbenzyl)desleucylA82846B]",0.25,0.25,1,6.7,1,0.25,2,0.66,2,0.5,>64,2,>64,2,≦.06,1,4,0.5,1,1,"minimal inhibitory concentration (MIC), SA 447 [21]: 1"
"CC1OC(OC2c3ccc(c(Cl)c3)Oc3cc4cc(c3OC3OC(CO)C(O)C(O)C3OC3CC(C)(NCc5ccc(-c6ccccc6)cc5)C(O)C(C)O3)Oc3ccc(cc3Cl)C(O)C(NC(=O)C(N)CCCCN)C(=O)NC(CC(N)=O)C(=O)NC4C(=O)NC3C(=O)NC2C(=O)NC(C(=O)O)c2cc(O)cc(O)c2-c2cc3ccc2O)CC(C)(N)C1O [Example 23, N^1-D-lysine derivative of N^DISACC-(p-phenylbenzyl)desleucylA82846B]",0.125,0.125,1,2,0.5,0.25,0.5,0.29,1,2,>64,2,>64,0.5,≦.06,0.25,1,0.5,0.5,2,"minimal inhibitory concentration (MIC), SA 447 [21]: 1"
"CC1OC(OC2C(Oc3c4cc5cc3Oc3ccc(cc3Cl)[C@@H](O)[C@@H](NC(=O)[C@H]3CCCN3C(=O)OC(C)(C)C)C(=O)N[C@@H](CC(N)=O)C(=O)N[C@H]5C(=O)N[C@H]3C(=O)NC(C(=O)N[C@H](C(=O)O)c5cc(O)cc(O)c5-c5cc3ccc5O)[C@H](OC3CC(C)(N)C(O)C(C)O3)c3ccc(c(Cl)c3)O4)OC(CO)C(O)C2O)CC(C)(N)C1O (stereo partly drawn) [Example 24, N^1-(N-BOC-D-proline) derivative of desleucylA82846B]",8,2,4,>128,1,1,>64,4,16,2,>64,2,>64,2,1,1,32,1,2,1,"minimal inhibitory concentration (MIC), SA 447 [21]: 4"
"CC1OC(OC2c3ccc(c(Cl)c3)Oc3cc4cc(c3OC3OC(CO)C(O)C(O)C3OC3CC(C)(NCc5ccc(-c6ccccc6)cc5)C(O)C(C)O3)Oc3ccc(cc3Cl)C(O)C(NC(=O)C(Cc3c[nH]c5ccccc35)NC(=O)OC(C)(C)C)C(=O)NC(CC(N)=O)C(=O)NC4C(=O)NC3C(=O)NC2C(=O)NC(C(=O)O)c2cc(O)cc(O)c2-c2cc3ccc2O)CC(C)(N)C1O [Example 25, N^1-(N-BOC-D-tryptophan) derivative of N^DISACC-(p-phenylbenzyl)desleucylA82846B]",2,2,4,27,1,0.5,8,1.3,2,2,>64,2,>64,1,≦.06,2,4,2,1,2,"minimal inhibitory concentration (MIC), SA 447 [21]: 2"
"CC1OC(OC2c3ccc(c(Cl)c3)Oc3cc4cc(c3OC3OC(CO)C(O)C(O)C3OC3CC(C)(NCc5ccc(-c6ccccc6)cc5)C(O)C(C)O3)Oc3ccc(cc3Cl)C(O)C(NC(=O)C3CCCN3C(=O)OC(C)(C)C)C(=O)NC(CC(N)=O)C(=O)NC4C(=O)NC3C(=O)NC2C(=O)NC(C(=O)O)c2cc(O)cc(O)c2-c2cc3ccc2O)CC(C)(N)C1O [Example 26, N^1-(N-BOC-D-proline) derivative of N^DISACCC-(p-phenylbenzyl)desleucylA82846B]",0.5,0.25,2,23,0.25,0.125,4,0.76,1,0.5,>64,1,>64,1,≦.06,1,2,≦.06,0.5,0.5,"minimal inhibitory concentration (MIC), SA 447 [21]: 1"
